Measured values reported in patent US9598412B2, “Spiroindoline compounds for use as anthelminthics” (Intervet, Inc., priority 2010, dated 2017).
Like-named read-outs stand apart in the source and are kept apart here.

Tested on: Haemonchus contortus
Assay: Efficacy against Haemonchus contortus in jirds
Assay type: in vivo
Conditions: 72 h, jirds (Meriones unguiculatus), necropsy three days after treatment, read-out: reduction of the Haemonchus contortus count (mean larvae count in stomach vs untreated control group)
Description: Compounds according to this invention (numbers refer to the compound number in Table 1) were tested in vivo using Haemonchus contortus in jirds (Meriones unguiculatus). The jirds were orally infected with approximately 750-3.000 third-stage larvae of Haemonchus contortus. Ten days after infection, the jirds in the treatment groups were treated once either orally or subcutaneously with compounds at a dose of 10 mg or 50 mg per kg bodyweight. Three days after treatment, the jirds were necropsied, and the larvae burden in the stomach was determined. During the study no side-effects in jirds were observed. The efficacy was defined as the reduction of the mean larvae count in the infected jirds of the treatment group in comparison to the infected jirds in an untreated control group (negative control).

[1] = po, treated once orally at 50 mg/kg bw ten days after infection
[2] = sc, treated once subcutaneously at 50 mg/kg bw ten days after infection
[3] = po, treated once orally at 10 mg/kg ten days after infection

SMILES	inhibition in vivo at 50 mg/kg [2] [%]	inhibition in vivo at 10 mg/kg [3] [%]	other results
O=C(c1ccnc(Cl)c1)N1CC2(CCN(C/C=C/c3ccc(F)cc3F)CC2)c2cc(C(F)(F)F)ccc21 [Compound 12]	–	–	inhibition in vivo at 50 mg/kg [1]: ≥ 50%
O=C(c1ccnc(Cl)c1)N1CC2(CCN(C/C=C/c3ccc(F)cc3F)CC2)c2c(Cl)cc(Cl)cc21 [Compound 19]	–	–	inhibition in vivo at 50 mg/kg [1]: ≥ 50%
O=C(c1ccnc(Cl)c1)N1CC2(CCN(C/C=C/c3ccc(F)cc3F)CC2)c2c1ccc(Cl)c2Cl [Compound 20]	≥ 50	–	–
O=C(c1ccnc(Cl)c1)N1CC2(CCN(C/C=C/c3cccc(Cl)c3Cl)CC2)c2cc(Cl)ccc21 [Compound 25, [5-chloro-1′-[(E)-3-(2,3-dichlorophenyl)allyl]spiro[indoline-3,4′-piperidine]-1-yl]-(2-chloro-4-pyridyl)methanone]	≥ 50	–	–
O=C(c1ccnc(Cl)c1)N1CC2(CCN(C/C=C/c3ccc(Cl)c(Cl)c3)CC2)c2cc(Cl)ccc21 [Compound 27]	≥ 50	–	–
O=C(c1ccnc(Cl)c1)N1CC2(CCN(C/C=C/c3ccc(Cl)cc3)CC2)c2cc(C(F)(F)F)ccc21 [Compound 42]	–	≥ 50	–
Cc1ccc2c(c1)C1(CCN(C/C=C/c3ccc(Cl)c(Cl)c3)CC1)CN2C(=O)c1ccnc(Cl)c1 [Compound 71]	–	–	inhibition in vivo at 10 mg/kg (sc, treated once subcutaneously at 10 mg/kg ten days after infection): ≥ 50%
O=C(c1ccnc(Cl)c1)N1CC2(CCN(C/C=C/c3ccc(Cl)c(Cl)c3)CC2)c2cc(SC(F)(F)F)ccc21 [Compound 77]	–	≥ 50	–
Cc1ccc2c(c1)C1(CCN(C/C=C/c3ccc(Cl)cc3F)CC1)CN2C(=O)c1ccnc(Cl)c1 [Compound 87]	–	≥ 50	–
